As usually defined, the IC50 is the concentration that gives 50% inhibition.

The record followed here is patent US7704995B2 (Exelixis, Inc., priority 2003, dated 2010).

The assay has as its target T1, Chk1 (Homo sapiens, UniProt O14757).
T1 construct: purchased Upstate Biotechnology
T1 sequence (O14757 1-476): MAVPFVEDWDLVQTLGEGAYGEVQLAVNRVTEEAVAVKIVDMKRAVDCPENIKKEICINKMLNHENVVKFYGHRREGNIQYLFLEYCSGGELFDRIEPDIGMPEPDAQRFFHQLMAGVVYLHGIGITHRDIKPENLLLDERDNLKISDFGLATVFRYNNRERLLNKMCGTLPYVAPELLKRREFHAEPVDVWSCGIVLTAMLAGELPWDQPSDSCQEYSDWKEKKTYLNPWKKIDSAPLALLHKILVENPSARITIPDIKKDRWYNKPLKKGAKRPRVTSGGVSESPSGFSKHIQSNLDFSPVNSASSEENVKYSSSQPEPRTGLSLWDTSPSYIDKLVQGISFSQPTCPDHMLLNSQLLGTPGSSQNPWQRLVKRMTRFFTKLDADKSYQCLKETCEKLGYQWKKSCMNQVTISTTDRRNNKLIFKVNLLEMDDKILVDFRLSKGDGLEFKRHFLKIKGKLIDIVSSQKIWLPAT
The experiment in a line: Chk1 kinase assay: incorporation of γ-33P ATP into immobilized myelin basic protein. The format is biochemical. Particulars: Table 11; Chk1 only; read-out: Chk1 IC50. In short, it runs like this:
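Read-out is scintillation counting of 33P incorporated into plate-bound myelin basic protein. Chk1 runs at 10 nM enzyme with 10 μM ATP, Chk2 at 20 nM with 30 μM ATP, each for 1 hour at room temperature. Duplicate points; IC50 taken as 50% activity reduction, Ki computed from IC50.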

`CNC(=O)c1cc(-c2cccc(CNC3CCc4cc(F)cc(F)c43)c2)cnc1N` (centres unmarked) [Example 524, 2-amino-5-(3-{[(5,7-difluoro-2,3-dihydro-1H-inden-1-yl)amino]methyl}phenyl)-N-methylpyridine-3-carboxamide]: the half-inhibitory concentration (IC50) was 0.05 to 1 µM.

For `CNC(=O)c1nc(-c2ccc3ccnc(N[C@H]4CCc5ccccc54)c3c2)cnc1N` [Example 525, 3-amino-6-{1-[(1S)-2,3-dihydro-1H-inden-1-ylamino]isoquinolin-7-yl}-N-methylpyrazine-2-carboxamide], the half-maximal inhibitory concentration (IC50) fell in the range of 0.05 to 1 µM. Consider `CNC(=O)c1nc(-c2ccc3c(c2)C(N[C@H]2CCc4ccccc42)CC3)cnc1N` (stereo partly drawn) [Example 526, 3-amino-6-{3-[(1S)-2,3-dihydro-1H-inden-1-ylamino]-2,3-dihydro-1H-inden-5-yl}-N-methylpyrazine-2-carboxamide], for which the IC50 was below 0.05 µM.

As to `CNC(=O)c1nc(-c2cccc(CNC3CCc4cc(CCCO)ccc43)c2)cnc1N` (centres unmarked) [Example 527], the IC50 is below 0.05 µM. With `Nc1ncc(-c2cccc(CN[C@H]3CCc4ccccc43)c2)nc1-c1cnco1` [Example 528, 5-(3-{[(1S)-2,3-dihydro-1H-inden-1-ylamino]methyl}phenyl)-3-(1,3-oxazol-5-yl)pyrazin-2-amine] the figure was 1 to 10 µM. For `NNC(=O)c1nc(-c2cccc(CN[C@H]3CCc4ccccc43)c2)cnc1N` [Example 529, 3-amino-6-(3-{[(1S)-2,3-dihydro-1H-inden-1-ylamino]methyl}phenyl)pyrazine-2-carbohydrazide], the IC50 fell in the range of 0.05 to 1 µM. Take `NC(=O)c1nc(-c2cccc(CN[C@H]3CCc4ccccc43)c2)cnc1N` [Example 530, 3-amino-6-(3-{[(1S)-2,3-dihydro-1H-inden-1-ylamino]methyl}phenyl)pyrazine-2-carboxamide]: the IC50 was 0.05 to 1 µM. As to `CC(=O)c1nc(-c2cccc(CN[C@H]3CCc4ccccc43)c2)cnc1N` [Example 531, 1-[3-amino-6-(3-{[(1S)-2,3-dihydro-1H-inden-1-ylamino]methyl}phenyl)pyrazin-2-yl]ethanone], the IC50 was in the range of 0.05 to 1 µM. As to `Nc1ncc(-c2cccc(CNC3CCc4ccccc43)c2)nc1C(=O)NCc1ccc2ccccc2c1` (centres unmarked) [Example 532, 3-amino-6-{3-[(2,3-dihydro-1H-inden-1-ylamino)methyl]phenyl}-N-(naphthalen-2-ylmethyl)pyrazine-2-carboxamide], the IC50 is at least 10 µM. For `Nc1ncc(-c2cccc(CNC3CCc4ccccc43)c2)nc1C(=O)NC1CCCCC1` (centres unmarked) [Example 533, 3-amino-N-cyclohexyl-6-{3-[(2,3-dihydro-1H-inden-1-ylamino)methyl]phenyl}pyrazine-2-carboxamide], the IC50 was 1 to 10 µM. With `Nc1ncc(-c2cccc(CN[C@H]3CCc4ccccc43)c2)nc1C(=O)NCc1ccncc1` [Example 534, 3-amino-6-(3-{[(1S)-2,3-dihydro-1H-inden-1-ylamino]methyl}phenyl)-N-(pyridin-4-ylmethyl)pyrazine-2-carboxamide] the figure was 1 to 10 µM. The result for `Nc1ncc(-c2cccc(CO)c2)nc1-c1nnc[nH]1` [Example 535, {3-[5-amino-6-(4H-1,2,4-triazol-3-yl)pyrazin-2-yl]phenyl}methanol] reads 1 to 10 µM; that for `Nc1ncc(-c2cccc(CN[C@H]3CCc4ccccc43)c2)nc1-c1nnc[nH]1` [Example 536, 5-(3-{[(1S)-2,3-dihydro-1H-inden-1-ylamino]methyl}phenyl)-3-(4H-1,2,4-triazol-3-yl)pyrazin-2-amine], 0.05 to 1 µM; that for `Nc1ncc(-c2cccc(CN[C@H]3CCc4ccccc43)c2)nc1C(=O)NCC(F)(F)F` [Example 537, 3-amino-6-(3-{[(1S)-2,3-dihydro-1H-inden-1-ylamino]methyl}phenyl)-N-(2,2,2-trifluoroethyl)pyrazine-2-carboxamide], 1 to 10 µM.

For `Nc1ncc(-c2cccc(CN[C@H]3CCc4ccccc43)c2)nc1C(=O)NCCCCCO` [Example 538, 3-amino-6-(3-{[(1S)-2,3-dihydro-1H-inden-1-ylamino]methyl}phenyl)-N-(5-hydroxypentyl)pyrazine-2-carboxamide], the IC50 is 1 to 10 µM.

Regarding `Nc1ncc(-c2cccc(CN[C@H]3CCc4ccccc43)c2)nc1C(=O)NCCCCO` [Example 539, 3-amino-6-(3-{[(1S)-2,3-dihydro-1H-inden-1-ylamino]methyl}phenyl)-N-(4-hydroxybutyl)pyrazine-2-carboxamide], the IC50 was in the range of 0.05 to 1 µM. As for `Nc1ncc(-c2cccc(CN[C@H]3CCc4ccccc43)c2)nc1C(=O)NCCN1CCCC1` [Example 540, 3-amino-6-(3-{[(1S)-2,3-dihydro-1H-inden-1-ylamino]methyl}phenyl)-N-(2-pyrrolidin-1-ylethyl)pyrazine-2-carboxamide], the IC50 was 0.05 to 1 µM.

As to `Nc1ncc(-c2cccc(CN[C@H]3CCc4ccccc43)c2)nc1C(=O)NCCN1CCCCC1` [Example 541, 3-amino-6-(3-{[(1S)-2,3-dihydro-1H-inden-1-ylamino]methyl}phenyl)-N-(2-piperidin-1-ylethyl)pyrazine-2-carboxamide], the IC50 is 1 to 10 µM. With `Nc1ncc(-c2cccc(CN[C@H]3CCc4ccccc43)c2)nc1C(=O)NCCN1CCOCC1` [Example 542, 3-amino-6-(3-{[(1S)-2,3-dihydro-1H-inden-1-ylamino]methyl}phenyl)-N-(2-morpholin-4-ylethyl)pyrazine-2-carboxamide], the IC50 was in the range of 1 to 10 µM.

For the compound `Nc1ncc(-c2cccc(CN[C@H]3CCc4ccccc43)c2)nc1C(=O)NCC1CC1` [Example 543, 3-amino-N-(cyclopropylmethyl)-6-(3-{[(1S)-2,3-dihydro-1H-inden-1-ylamino}methyl}phenyl)pyrazine-2-carboxamide], the IC50 is 0.05 to 1 µM. With `Nc1ncc(-c2cccc(CN[C@H]3CCc4ccccc43)c2)nc1C(=O)NCc1ccccc1` [Example 544, 3-amino-6-(3-{[(1S)-2,3-dihydro-1H-inden-1-ylamino]methyl}phenyl)-N-(phenylmethyl)pyrazine-2-carboxamide], the 50% inhibitory concentration (IC50) lay within 1 to 10 µM. On to `Nc1ncc(-c2cccc(CN[C@H]3CCc4ccccc43)c2)nc1C(=O)NCCc1ccccc1` [Example 545, 3-amino-6-(3-{[(1S)-2,3-dihydro-1H-inden-1-ylamino]methyl}phenyl)-N-(2-phenylethyl)pyrazine-2-carboxamide], for which the IC50 lay within 1 to 10 µM. On to `Nc1ncc(-c2cccc(CN[C@H]3CCc4ccccc43)c2)nc1C(=O)c1ccccc1` [Example 546, [3-amino-6-(3-{[(1S)-2,3-dihydro-1H-inden-1-ylamino]methyl}phenyl)pyrazin-2-yl](phenyl)methanone], for which the IC50 fell in the range of 0.05 to 1 µM. With `Nc1ncc(-c2cccc(CN[C@H]3CCc4ccccc43)c2)nc1C(=O)NCCO` [Example 547, 3-amino-6-(3-{[(1S)-2,3-dihydro-1H-inden-1-ylamino]methyl}phenyl)-N-(2-hydroxyethyl)pyrazine-2-carboxamide] the figure was 0.05 to 1 µM. With `Nc1ncc(-c2cccc(CN[C@H]3CCc4ccccc43)c2)nc1C(=O)NC1CC1` [Example 548, 3-amino-N-cyclopropyl-6-(3-{[(1S)-2,3-dihydro-1H-inden-1-ylamino]methyl}phenyl)pyrazine-2-carboxamide] the figure was 0.05 to 1 µM; with `Nc1ncc(-c2cccc(CN[C@H]3CCc4ccccc43)c2)nc1C(=O)N1CCCC1` [Example 549, 5-(3-{[(1S)-2,3-dihydro-1H-inden-1-ylamino]methyl}phenyl)-3-(pyrrolidin-1-ylcarbonyl)pyrazin-2-amine], 1 to 10 µM; with `Cc1nnc(-c2nc(-c3cccc(CO)c3)cnc2N)[nH]1` [Example 550, {3-[5-amino-6-(5-methyl-4H-1,2,4-triazol-3-yl)pyrazin-2-yl]phenyl}methanol], 1 to 10 µM. Turning to `Nc1ncc(-c2cccc(CO)c2)nc1-c1nnc(-c2ccccc2)[nH]1` [Example 551, {3-[5-amino-6-(5-phenyl-4H-1,2,4-triazol-3-yl)pyrazin-2-yl]phenyl}methanol], the half-inhibitory concentration (IC50) lay in the range of 0.05 to 1 µM. With `Nc1ncc(-c2cccc(CO)c2)nc1-c1nnc(Cc2ccccc2)[nH]1` [Example 552, (3-{5-amino-6-[5-(phenylmethyl)-4H-1,2,4-triazol-3-yl]pyrazin-2-yl}phenyl)methanol], the IC50 lay in the range of 1 to 10 µM. The result for `CNNC(=O)c1nc(-c2cccc(CN[C@H]3CCc4ccccc43)c2)cnc1N` [Example 553, 3-amino-6-(3-{[(1S)-2,3-dihydro-1H-inden-1-ylamino]methyl}phenyl)-N′-methylpyrazine-2-carbohydrazide] reads 0.05 to 1 µM. `CN(C)C(=O)c1nc(-c2cccc(CN[C@H]3CCc4ccccc43)c2)cnc1N` [Example 554, 3-amino-6-(3-{[(1S)-2,3-dihydro-1H-inden-1-ylamino]methyl}phenyl)-N,N-dimethylpyrazine-2-carboxamide]: the IC50 is 0.05 to 1 µM.

As to `Nc1ncc(-c2cccc(CN[C@H]3CCc4ccccc43)c2)nc1-c1nnc(Cc2ccccc2)[nH]1` [Example 555, 5-(3-{[(1S)-2,3-dihydro-1H-inden-1-ylamino]methyl}phenyl)-3-[5-(phenylmethyl)-4H-1,2,4-triazol-3-yl]pyrazin-2-amine], the IC50 lay within 0.05 to 1 µM.
